Measurements as given in PubChem BioAssay (NCI).
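Following 48 hours of exposure in 96-well plates, responses at five concentrations were used to interpolate endpoints linearly. The concentration for full growth arrest is given as TGI.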

Experiments:
Assay in all cases: NCI tumour cell line growth inhibition, 48 h
[1] = test system: HCC-2998 colon
[2] = test system: HCT-116 colon
[3] = test system: EKVX NSCLC
[4] = test system: HT29 colon
[5] = test system: HCT-15 colon
[6] = test system: SK-MEL-2 melanoma
[7] = test system: MOLT-4 leukemia
[8] = test system: SW-620 colon
[9] = test system: SF-268 CNS
[10] = test system: OVCAR-3 ovarian
[11] = test system: SF-539 CNS
[12] = test system: UACC-257 melanoma
[13] = test system: CAKI-1 renal
[14] = test system: NCI-H226 lung
[15] = test system: M14 melanoma
[16] = test system: HOP-62 NSCLC
[17] = test system: TK-10 renal
[18] = test system: SNB-19 CNS
[19] = test system: ACHN renal
[20] = test system: SF-295 CNS
[21] = test system: PC-3 prostate
[22] = test system: T-47D breast
[23] = test system: MALME-3M melanoma
[24] = test system: OVCAR-5 ovarian
[25] = test system: 786-0 renal
[26] = test system: NCI-H23 lung
[27] = test system: MDA-MB-435
[28] = test system: SNB-75 CNS
[29] = test system: HS 578T breast
[30] = test system: DU-145 prostate
[31] = test system: OVCAR-4 ovarian
[32] = test system: U251 CNS
[33] = test system: RXF 393 renal
[34] = test system: MDA-MB-231 breast
[35] = test system: NCI-H460 lung
[36] = test system: A498 renal
[37] = test system: UO-31 renal
[38] = test system: KM12 colon
[39] = test system: NCI/ADR-RES ovarian
[40] = test system: SR leukemia
[41] = test system: SK-MEL-5 melanoma
[42] = test system: SK-OV-3 ovarian
[43] = test system: UACC-62 melanoma
[44] = test system: A549 NSCLC
[45] = test system: COLO 205 colon
[46] = test system: HOP-92 NSCLC
[47] = test system: BT-549 breast

Measured: TGI

Cc1c(/C=N\NC(=S)NCCNC(=S)N/N=C\c2c(C)n(C)n(-c3ccccc3)c2=O)c(=O)n(-c2ccccc2)n1C
> 100 µM: [1] | [2] | [3] | [4] | [5] | [6] | [7] | [8] | [9] | [10] | [11] | [12] | [13] | [14] | [15] | [16] | [17] | [18] | [19] | [20] | [21] | [22] | [23] | [24] | [25] | [26] | [27] | [28] | [29] | [30] | [31] | [32] | [33] | [34] | [35] | [36] | [37] | [38] | [39] | [40] | [41] | [42] | [43] | [44] | [45] | [46] | [47]
